From US20020151581A1, “Glucose and lipid lowering compounds” (priority 1998, published 2002)
Read-outs that look alike come from different tables or passages of the source.

Columns and labels:
[1] = molecular target: T1, recombinant hormone-sensitive lipase (Homo sapiens, UniProt Q05469); test: Inhibition of recombinant (purified) hormone-sensitive lipase on glycerol-stabilized triolein; format: biochemical; conditions: test compound 100 μM, read-out: % inhibition Purified HSL
T1 construct: made in house
T1 sequence (Q05469 1-1076): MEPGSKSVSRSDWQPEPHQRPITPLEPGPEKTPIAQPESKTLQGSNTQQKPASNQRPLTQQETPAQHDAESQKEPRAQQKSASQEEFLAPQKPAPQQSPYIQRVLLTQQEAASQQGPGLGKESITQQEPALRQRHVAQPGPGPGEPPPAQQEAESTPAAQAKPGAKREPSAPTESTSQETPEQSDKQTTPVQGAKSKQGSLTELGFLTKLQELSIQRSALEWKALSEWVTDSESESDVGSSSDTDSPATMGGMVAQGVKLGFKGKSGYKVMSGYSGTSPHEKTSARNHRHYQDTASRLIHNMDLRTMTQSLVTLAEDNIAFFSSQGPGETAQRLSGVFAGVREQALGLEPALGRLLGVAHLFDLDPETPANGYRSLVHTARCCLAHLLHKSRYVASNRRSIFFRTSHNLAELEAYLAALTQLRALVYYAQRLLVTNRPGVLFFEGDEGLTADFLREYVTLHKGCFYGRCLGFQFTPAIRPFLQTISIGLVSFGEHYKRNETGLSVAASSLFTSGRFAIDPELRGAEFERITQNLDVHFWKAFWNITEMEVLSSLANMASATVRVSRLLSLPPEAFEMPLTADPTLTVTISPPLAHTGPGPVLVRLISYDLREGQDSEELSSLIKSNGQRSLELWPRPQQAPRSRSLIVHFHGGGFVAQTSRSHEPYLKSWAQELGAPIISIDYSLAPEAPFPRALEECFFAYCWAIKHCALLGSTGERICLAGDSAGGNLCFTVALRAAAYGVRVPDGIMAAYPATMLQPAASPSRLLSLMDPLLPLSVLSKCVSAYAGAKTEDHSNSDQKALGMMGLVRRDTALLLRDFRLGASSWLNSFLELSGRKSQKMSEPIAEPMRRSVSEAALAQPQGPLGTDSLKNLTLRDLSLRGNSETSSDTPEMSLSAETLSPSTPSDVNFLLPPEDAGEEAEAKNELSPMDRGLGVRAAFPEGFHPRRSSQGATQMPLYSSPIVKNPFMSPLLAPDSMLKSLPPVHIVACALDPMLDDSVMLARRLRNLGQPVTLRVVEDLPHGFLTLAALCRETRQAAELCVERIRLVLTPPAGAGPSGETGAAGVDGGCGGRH
Description: Recombinant hormone-sensitive lipase protein isolated from a bacterial expression vector was pre-incubated with a compound of the invention (e.g., 100 μM) prior to the addition of substrate, emulsified triolein phosphatidylcholine/phosphatidylinositol (PC/PI), to initiate the reaction. At various time points, aliquots of the reaction were taken, and the level of glycerol used as an index of enzyme activity. Pharmacological specificity is determined by incubating test compound with other mammalian and non-mammalian lipase enzyme systems to assess inhibition of activity. […]
In a similar manner to that described in Example 4 above, 2α-benzoyloxy-4,5,7,8,11αH-eudesman-8,12-olide at 100 μM was evaluated for ability to activity of recombinant hormone-sensitive lipase and hormone-sensitive lipase derived from a preparation of 3T3-cell lysate on glycerol-stabilized triolein.

hepatic lipase = molecular target: T2, hepatic lipase (Homo sapiens, UniProt P11150); test: Inhibition of hepatic lipase, glycerol stabilized triolein substrate; format: biochemical; parameters: Pur. Hepatic Lipase + test compound (enzyme activity): unit not given beside the values; conditions: test compound 100 μM
T2 sequence (P11150 23-499): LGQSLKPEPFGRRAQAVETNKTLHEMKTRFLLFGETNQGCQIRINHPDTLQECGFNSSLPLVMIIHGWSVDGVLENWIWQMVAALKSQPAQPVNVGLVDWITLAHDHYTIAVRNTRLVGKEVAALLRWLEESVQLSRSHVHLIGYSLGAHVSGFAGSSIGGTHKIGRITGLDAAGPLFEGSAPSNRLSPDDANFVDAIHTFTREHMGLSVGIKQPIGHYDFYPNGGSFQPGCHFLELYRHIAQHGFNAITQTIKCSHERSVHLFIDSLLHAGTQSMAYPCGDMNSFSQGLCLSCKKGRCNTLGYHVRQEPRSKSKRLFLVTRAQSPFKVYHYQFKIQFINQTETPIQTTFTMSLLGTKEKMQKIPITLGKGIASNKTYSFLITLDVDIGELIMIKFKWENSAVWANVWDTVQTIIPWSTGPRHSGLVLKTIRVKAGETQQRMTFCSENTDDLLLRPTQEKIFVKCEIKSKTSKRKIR

With CC1C[C@H](OC(=O)c2ccccc2)C[C@]2(C)C[C@H]3OC(=O)[C@@H](C)[C@H]3CC12 (stereo partly drawn) [2α-benzoyloxy-4,5,7,8,11αH-eudesman-8,12-olide] the inhibition at 100 µM ([1]; triolein 30 μM) was 77%, the inhibition at 100 µM ([1]; triolein 67 μM) was 78% and the inhibition at 100 µM ([1]; triolein 100 μM) was 82%. For the same compound, the inhibition at 100 µM ([1]; triolein 201 μM) was 64%, the inhibition at 100 µM ([1]; triolein 400 μM) was 50% and the inhibition at 100 µM ([1]; triolein 601 μM) was 40%. For the same compound, the inhibition at 100 µM ([1]; triolein 800 μM) was 18%, the inhibition at 100 µM ([1]; triolein 1000 μM) was 27% and the “inhibition of hepatic lipase (in words)” value (hepatic lipase) was “failed to significantly inhibit”. The “Pur. Hepatic Lipase + test compound (enzyme activity)” value (“Pur. Hepatic Lipase + test compound” for short) (hepatic lipase; triolein substrate 30 μM) was 0.08, the “Pur. Hepatic Lipase + test compound” value (hepatic lipase; triolein substrate 67 μM) was 0.37 and the “Pur. Hepatic Lipase + test compound” value (hepatic lipase; triolein substrate 100 μM) was 0.69. For the same compound, the “Pur. Hepatic Lipase + test compound” value (hepatic lipase; triolein substrate 201 μM) was 6.36, the “Pur. Hepatic Lipase + test compound” value (hepatic lipase; triolein substrate 400 μM) was 30.80 and the “Pur. Hepatic Lipase + test compound” value (hepatic lipase; triolein substrate 1000 μM) was 151.60. For the same compound, the melting point was 181 to 183 °C.
